Columns and labels:
Assay type in all cases: physicochemical
[1] = […]-water partition coefficient, logP of compound by shake flask method based 31P-NMR analysis; conditions: octanol/water
[2] = Lipophilicity, logD of compound at pH 1.3 by shake flask method based 31P-NMR analysis; conditions: buffer
[3] = Basicity of hydrogen bond, pKHB of compound by IR spectroscopy
[4] = Octanol-water partition coefficient, logP of compound at pH 1.3 by shake flask method based 31P-NMR analysis
[5] = Octanol-water partition coefficient, logP of compound by shake flask method based 31P-NMR analysis
[6] = Lipophilicity, logD of compound at pH 7.4 by shake flask method based 31P-NMR analysis; conditions: buffer
[7] = Lipophilicity, logD of compound at pH 3 by shake flask method based 31P-NMR analysis; conditions: buffer

## CCOP(=S)(OCC)Oc1ccc(OC)cc1
[1]
  logP: 3.37

## C[C@@H]1C[C@H]2[C@@H]3CCC4=CC(=O)C=C[C@]4(C)[C@@]3(F)[C@@H](O)C[C@]2(C)[C@@]1(O)C(=O)COP(=O)(O)O [DEXAMETHASONE SODIUM PHOSPHATE]
[2]
  logD: 1.24

## CCCCCCC(O)(P(=O)(O)O)P(=O)(O)O
[2]
  logD: -0.08

## CCOP(=O)(OCC)OCC [TRIETHYL PHOSPHATE]
[3]
  pKHB: 2.574

## CCNP(=O)(OCC)OCC
[1]
  logP: 0.54

## CCOP(=O)(OCC)Oc1ccc(OC)cc1
[1]
  logP: 2.14

## CCOP(=S)(OCC)Oc1ccc([N+](=O)[O-])cc1 [PARATHION]
[1]
  logP: 3.08

## O=P(O)(O)C(O)(c1ccccc1)P(=O)(O)O
[4]
  logP: -1.87

## O=P(CCCO)(CCCO)CCCO
[1]
  logP: -2.49

## CCCCCCCCCC(O)(P(=O)(O)O)P(=O)(O)O
[2]
  logD: 1.72

## O=P(O)(O)C(O)(c1cc(F)c(F)c(F)c1)P(=O)(O)O
[2]
  logD: -0.69

## CCOP(=S)(OCC)SCC
[1]
  logP: 3.38

## CP(C)(C)=[Se]
[1]
  logP: -0.02
[3]
  pKHB: 1.519

## CCOP(=O)(OCC)Oc1ccccc1 [PHOSPHORIC ACID DIETHYL ESTER PHENYL ESTER]
[1]
  logP: 2.07

## CCCCCCCC(O)(P(=O)(O)O)P(=O)(O)O
[2]
  logD: 0.6

## CCOP(=O)(OCC)c1ccccc1
[5]
  logP: 1.1

## CCOP(=S)(OCC)c1ccccc1
[5]
  logP: 3.66

## CP(C)(C)=O
[1]
  logP: -1.6
[3]
  pKHB: 3.444

## CCOP(=O)(OCC)Oc1ccc([N+](=O)[O-])cc1 [PARAOXON]
[1]
  logP: 2.11

## CC(C)OC(=O)OCOP(=O)(CO[C@H](C)Cn1cnc2c(N)ncnc21)OCOC(=O)OC(C)C [TENOFOVIR DISOPROXIL]
[6]
  logD: 1.26
[2]
  logD: 1.26

## CCOP(=O)(OCC)SCC
[1]
  logP: 1.42
[3]
  pKHB: 2.377

## OCCCP(=S)(CCCO)CCCO
[1]
  logP: -1.2

## CP(C)(C)=S
[1]
  logP: -0.23
[3]
  pKHB: 1.533

## O=P(O)(O)C(O)(c1ccccc1F)P(=O)(O)O
[2]
  logD: -2.16
[7]
  logD: -3.25

## COP(=O)(OC)OC [TRIMETHYL PHOSPHATE]
[1]
  logP: -0.4

## O=P(O)(O)C(O)(c1ccc(F)cc1)P(=O)(O)O
[2]
  logD: -1.57

## OCCCP(=[Se])(CCCO)CCCO
[1]
  logP: -0.9

## CCOP(=S)(OCC)Oc1ccccc1
[1]
  logP: 3.34

— ChEMBL document CHEMBL5131543, “Studying Lipophilicity Trends of Phosphorus Compounds by 31P-NMR Spectroscopy: A Powerful Tool for the Design of P-Containing Drugs” (J Med Chem, 2022)
